Results from ChEMBL document CHEMBL5346927, “Discovery of a novel 1H-pyrazole- [3,4-b] pyridine-based lysine demethylase 5B inhibitor with potential anti-prostate cancer activity that perturbs the phosphoinositide 3-kinase/AKT pathway” (Eur J Med Chem, 2023).
pIC50: −log10 of the molar value. Calls of active or inactive are those of the source. The calls are words filed in the database; no cut-off is given here.

What was measured:
[1] = Toxicity in BALB/C nude mouse xenografted with human PC-3 cells assessed as indistinct prostate tube wall at 25 mg/kg, IG administered for 25 days by H&E staining based analysis; assay type: organism-based; conditions: in vivo, po, 600 h, time 25 day
[2] = test system: PC-3; test: Inhibition of PI3K/AKT pathway in human PC-3 cells assessed as decrease in P110alpha level at 20 uM by Western blot analysis relative to control; assay type: cell-based
[3] = test system: PC-3; test: Induction of cell cycle arrest in human PC-3 cells assessed as increase in G2/M phase cell ratio at 5 uM incubated for 24 hrs by PI/RNase A staining based flow cytometric analysis (reference value: 16.07%); assay type: functional
[4] = Cmax in ICR mouse at 5 mg/kg, iv measured at 0.083 to 24 hrs by LC-MS analysis; assay type: ADME, organism-based; parameters: time upper 24 hrs, time lower 0.083 hrs, dose 5 mg/kg, route iv; conditions: in vivo
[5] = molecular target: T1, Lysine-specific demethylase 5B (Homo sapiens, UniProt Q9UGL1); test: Inhibition of KDM5B in human PC-3 cells assessed as H3K4me3 accumulation incubated for 72 hrs by Western blot analysis; assay type: cell-based
T1 sequence (Q9UGL1 whole entry): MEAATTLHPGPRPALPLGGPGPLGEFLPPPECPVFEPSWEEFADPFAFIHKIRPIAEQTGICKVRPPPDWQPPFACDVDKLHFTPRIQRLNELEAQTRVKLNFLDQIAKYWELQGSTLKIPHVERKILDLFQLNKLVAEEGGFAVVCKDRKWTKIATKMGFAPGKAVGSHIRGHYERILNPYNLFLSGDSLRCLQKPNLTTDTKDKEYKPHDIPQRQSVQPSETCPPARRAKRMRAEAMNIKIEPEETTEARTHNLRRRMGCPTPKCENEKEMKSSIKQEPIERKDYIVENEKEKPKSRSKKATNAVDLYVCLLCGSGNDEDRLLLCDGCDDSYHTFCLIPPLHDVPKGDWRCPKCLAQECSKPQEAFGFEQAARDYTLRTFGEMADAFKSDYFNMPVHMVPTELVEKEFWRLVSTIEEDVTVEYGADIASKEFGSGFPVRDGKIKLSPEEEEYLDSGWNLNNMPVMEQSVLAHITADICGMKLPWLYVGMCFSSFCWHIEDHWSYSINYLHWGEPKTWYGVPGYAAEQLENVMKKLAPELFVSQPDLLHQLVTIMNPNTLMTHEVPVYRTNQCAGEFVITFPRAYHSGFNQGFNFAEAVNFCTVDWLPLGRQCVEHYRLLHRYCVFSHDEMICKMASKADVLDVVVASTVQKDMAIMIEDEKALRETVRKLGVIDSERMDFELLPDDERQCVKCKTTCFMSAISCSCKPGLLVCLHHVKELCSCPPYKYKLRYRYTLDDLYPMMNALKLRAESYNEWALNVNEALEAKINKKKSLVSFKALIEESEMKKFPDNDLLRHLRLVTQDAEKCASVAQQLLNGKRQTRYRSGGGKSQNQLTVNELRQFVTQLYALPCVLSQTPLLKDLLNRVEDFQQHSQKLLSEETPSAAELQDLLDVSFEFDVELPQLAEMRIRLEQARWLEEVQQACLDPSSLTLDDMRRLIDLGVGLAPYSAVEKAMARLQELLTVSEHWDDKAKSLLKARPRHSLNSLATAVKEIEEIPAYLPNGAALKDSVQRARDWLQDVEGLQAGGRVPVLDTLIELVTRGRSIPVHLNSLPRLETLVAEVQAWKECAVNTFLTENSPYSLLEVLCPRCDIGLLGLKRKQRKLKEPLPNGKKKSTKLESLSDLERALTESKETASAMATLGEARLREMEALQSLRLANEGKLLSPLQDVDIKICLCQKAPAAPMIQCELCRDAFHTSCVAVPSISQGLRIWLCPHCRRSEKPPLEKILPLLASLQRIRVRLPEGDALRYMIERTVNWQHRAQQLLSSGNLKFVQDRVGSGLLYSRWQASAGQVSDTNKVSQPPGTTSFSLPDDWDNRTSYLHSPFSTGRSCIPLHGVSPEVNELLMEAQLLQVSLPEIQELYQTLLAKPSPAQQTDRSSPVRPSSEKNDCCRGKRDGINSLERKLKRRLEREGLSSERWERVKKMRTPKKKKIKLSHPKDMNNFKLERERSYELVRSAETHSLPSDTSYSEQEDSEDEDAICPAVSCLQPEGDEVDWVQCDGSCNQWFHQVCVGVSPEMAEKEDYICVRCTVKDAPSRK

[6] = Acute toxicity in Kunming mouse assessed as effect on lung at 2 g/Kg, IG measured after 2 weeks by H&E staining based analysis; assay type: tissue-based; conditions: in vivo, po, 2000 mg/kg, 336 h
[7] = molecular target: T1, Lysine-specific demethylase 5B; test: Inhibition of KDM5B in human PC-3 cells assessed as H3K4me1 accumulation incubated for 72 hrs by Western blot analysis; assay type: cell-based
[8] = test system: PC-3; test: Induction of apoptosis in human PC-3 cells assessed as early apoptotic cells at 10 uM incubated for 72 hrs by Annexin V-FITC/PI staining based flow cytometric analysis (reference value: 3.01%); assay type: functional
[9] = test system: MGC-803; test: Antitumor activity against human MGC-803 cells assessed as inhibition of cell proliferation incubated for 72 hrs by MTT assay; assay type: functional, cell-based; conditions: MGC-803, 72 h
[10] = test system: PC-3; test: Induction of apoptosis in human PC-3 cells assessed as early apoptotic cells at 5 uM incubated for 72 hrs by Annexin V-FITC/PI staining based flow cytometric analysis (reference value: 3.01%); assay type: functional
[11] = Half-life in ICR mouse at 25 mg/kg, IG measured at 0.083 to 24 hrs by LC-MS analysis; assay type: ADME, organism-based; conditions: in vivo, po, time 0.083-24 hrs
[12] = test system: PC-3; test: Induction of apoptosis in human PC-3 cells assessed as viable cells at 2.5 uM incubated for 72 hrs by Annexin V-FITC/PI staining based flow cytometric analysis (reference value: 90.93%); assay type: functional; conditions: read-out: Activity
[13] = test system: PC-3; test: Induction of apoptosis in human PC-3 cells assessed as early apoptotic cells at 2.5 uM incubated for 72 hrs by Annexin V-FITC/PI staining based flow cytometric analysis (reference value: 3.01%); assay type: functional
[14] = Toxicity in BALB/C nude mouse xenografted with human PC-3 cells assessed as liver damage at 25 to 50 mg/kg, IG administered for 25 days by H&E staining based analysis; assay type: organism-based; conditions: in vivo, po, 600 h, dose 25-50 mg/kg, time 25 day
[15] = Cmax in ICR mouse at 25 mg/kg, IG measured at 0.083 to 24 hrs by LC-MS analysis; assay type: ADME, organism-based; parameters: time lower 0.083 hrs, dose 25 mg/kg, time upper 24 hrs, route ig; conditions: in vivo, po
[16] = Half-life in ICR mouse at 5 mg/kg, iv measured at 0.083 to 24 hrs by LC-MS analysis; assay type: ADME, organism-based; conditions: in vivo, time 0.083-24 hrs
[17] = test system: PC-3; test: Induction of apoptosis in human PC-3 cells assessed as viable cells at 10 uM incubated for 72 hrs by Annexin V-FITC/PI staining based flow cytometric analysis (reference value: 90.93%); assay type: functional; conditions: read-out: Activity
[18] = test system: LNCaP; test: Inhibition of colony formation in human LNCaP cells incubated for 72 hrs by crystal violet staining based microplate reader analysis; assay type: functional, cell-based
[19] = Toxicity in BALB/C nude mouse xenografted with human PC-3 cells assessed as spleen damage at 25 to 50 mg/kg, IG administered for 25 days by H&E staining based analysis; assay type: organism-based; conditions: in vivo, po, 600 h, dose 25-50 mg/kg, time 25 day
[20] = test system: PC-3; test: Induction of apoptosis in human PC-3 cells assessed as necrotic cells at 5 uM incubated for 72 hrs by Annexin V-FITC/PI staining based flow cytometric analysis (reference value: 5.01%); assay type: functional
[21] = test system: PC-3; test: Induction of apoptosis in human PC-3 cells assessed as viable cells at 5 uM incubated for 72 hrs by Annexin V-FITC/PI staining based flow cytometric analysis (reference value: 90.93%); assay type: functional; conditions: read-out: Activity
[22] = Toxicity in BALB/C nude mouse xenografted with human PC-3 cells assessed as reduction in prostate gland cells at 25 mg/kg, IG administered for 25 days by H&E staining based analysis; assay type: organism-based; conditions: in vivo, po, 600 h, time 25 day
[23] = test system: HepG2; test: Antitumor activity against human HepG2 cells assessed as inhibition of cell proliferation incubated for 72 hrs by MTT assay; assay type: functional, cell-based; conditions: HepG2, 72 h
[24] = test system: PC-3; test: Induction of apoptosis in human PC-3 cells assessed as late apoptotic cells at 2.5 uM incubated for 72 hrs by Annexin V-FITC/PI staining based flow cytometric analysis (reference value: 1.05%); assay type: functional
[25] = molecular target: T1, Lysine-specific demethylase 5B; test: Binding affinity to KDM5B in human PC-3 cells assessed as thermal stability by measuring KDM5B expression level preincubated with compound for 6 hrs followed by 20 mins incubation under 46 to 56 degreeC by CETSA based Western blot analysis; assay type: cell-based; conditions: time 380.0 min
[26] = Acute toxicity in Kunming mouse assessed as effect on survival at 2 g/Kg, IG measured after 2 weeks; conditions: in vivo, po, 2000 mg/kg, 336 h
[27] = test system: PC-3; test: Antitumor activity against human PC-3 cells xenografted in BALB/C nude mice assessed as decrease in tumor volume at 50 mg/kg, IG measured after 13 days; assay type: functional, organism-based; conditions: time 13.0 day
[28] = test system: PC-3; test: Inhibition of colony formation in human PC-3 cells incubated for 72 hrs by crystal violet staining based microplate reader analysis; assay type: functional, cell-based; conditions: dose 1.25-5 µM
[29] = Toxicity in BALB/C nude mouse xenografted with human PC-3 cells assessed as heart damage at 25 to 50 mg/kg, IG administered for 25 days by H&E staining based analysis; assay type: organism-based; conditions: in vivo, po, 600 h, dose 25-50 mg/kg, time 25 day
[30] = AUC (0 to t) in ICR mouse at 25 mg/kg, IG measured at 0.083 to 24 hrs by LC-MS analysis; assay type: ADME, organism-based; parameters: dose 25 mg/kg, time upper 24 hrs, time lower 0.083 hrs, route ig; conditions: in vivo, po
[31] = test system: PC-3; test: Inhibition of PI3K/AKT pathway in human PC-3 cells assessed as decrease in AKT phosphorylation at Thr308 residue at 2.5 to 10 uM by Western blot analysis; assay type: cell-based; conditions: dose 2.5-10 µM
[32] = Toxicity in BALB/C nude mouse xenografted with human PC-3 cells assessed as effect on body weight at 25 to 50 mg/kg, IG administered for 25 days; assay type: organism-based; conditions: in vivo, po, 600 h, dose 25-50 mg/kg, time 25 day
[33] = test system: PC-3; test: Induction of cell cycle arrest in human PC-3 cells assessed as increase in G2/M phase cell ratio at 2.5 uM incubated for 24 hrs by PI/RNase A staining based flow cytometric analysis (reference value: 16.07%); assay type: functional
[34] = MRT (0 to t) in ICR mouse at 25 mg/kg, IG measured at 0.083 to 24 hrs by LC-MS analysis; assay type: ADME, organism-based; conditions: in vivo, po, time 0.083-24 hrs
[35] = test system: PC-3; test: Inhibition of PI3K/AKT pathway in human PC-3 cells assessed as decrease in P110alpha level at 2.5 to 5 uM by Western blot analysis; assay type: cell-based; conditions: dose 2.5-5 µM

In the case of `CN1CCN(CCNC(=O)c2cc(-c3ccc4ccccc4c3)nc3c2cnn3-c2ccccc2)CC1`, the Activity [1] was “Non-Toxic”, the inhibition [2] was 80% and the Activity [3] was 27.47%. For the same compound, the Cmax [4] was 551.67 ng/mL, the inhibition [5] was “Dose-Dependent Effect” and the Activity [6] was “Non-Toxic”. The inhibition [7] was “Dose-Dependent Effect”, the Activity [8] was 0.81% and the pIC50 [9] was 5.22. It also gave an Activity [10] of 0.64%, a half-life [11] of 5.3 h and a viability at 2.5 µM [12] of 75%. For the same compound, the Activity [13] was 0.7%, the Activity [14] was “Non-Toxic” and the Cmax [15] was 412 ng/mL. For the same compound, the t1/2 [16] was 2.95 h, the viability at 10 µM [17] was 58.8% and the inhibition [18] was “Dose-Dependent Effect”. The Activity [19] was “Non-Toxic”, the Activity [20] was 18.77% and the viability at 5 µM [21] was 73%. For the same compound, the Activity [22] was “Non-Toxic”, the pIC50 [23] was 5.24 and the Activity [24] was 5.94%. For the same compound, the Activity [25] was “Active”, the Activity [26] was “Non-Toxic” and the Activity [27] was “Active”. The inhibition [28] was “Dose-Dependent Effect”, the Activity [29] was “Non-Toxic” and the AUCt [30] was 3024.33 ng·h/mL. For the same compound, the inhibition [31] was “inactive”, the Activity [32] was “Non-Toxic” and the Activity [33] was 18.17%. The MRT last [34] was 6.9 h and the inhibition [35] was “inactive”.
